From US11591306B2, “Vitamin E-based amphipathic compound, and use thereof” (Industry-University Cooperation Foundation Hanyang …, priority 2017, dated 2023)

Experiments:
LHI-RC complex = system: T1, LHI-RC complex; assay: LHI-RC structural stability, UV-Vis absorbance at 875 nm; parameters: species or system R. capsulatus; conditions: CMC+0.04 wt % or CMC+0.2 wt %, 20 days at 25° C.
T1 construct: His tag (only implied by Ni2+-NTA capture and imidazole elution; put on M from own knowledge of pUHTM86Bgl); made in house; host or cells: R. capsulatus U43 [pUHTM86Bgl] membranes
Protocol: An experiment was conducted to evaluate the ability of VEGs to stabilize the structure of LHI-RC. The photosynthetic superassembly consists of a complex of light-Harvesting complex I (LHI) and a reaction center (RC). The structural stability of LHI-RC was measured by a method of monitoring the structure of a protein for 20 days using UV-Vis spectroscopy. As amphipathic molecules, all VEGs of the present invention and conventional amphipathic molecules DDM and OG were used, and the concentrations of the amphipathic molecules were measured at CMC+0.04 wt % (FIG. 5A) and CMC+0.2 wt % ([…]), and the stability of the LHI-RC protein was investigated according to the concentration of an amphipathic molecule.
Specifically, LHI-RC stability was measured using a method disclosed in the paper published in 2008 by the inventors (P. S. Chae et al., ChemBioChem 2008, 9, 1706-1709). […] A 10 mL aliquot of the solution of the frozen R. capsulatus membrane was homogenized using a glass homogenizer, and incubated with gentle stirring at 32° C. for 30 minutes. The homogenized membrane was treated with 1.0 wt % DDM for 30 minutes at 32° C. […] Protein stability was measured at regular intervals during the cubation by measuring UV-Vis spectra of the samples in the range of 650 to 950 nm. Protein integrity was evaluated by monitoring absorbance (A875) at 875 nm.

[1] = Critical micelle concentration by hydrophobic fluorescence staining with diphenylhexatriene (DPH); type: physicochemical; conditions: aqueous solution
Protocol: A method of measuring CMC is not particularly limited, and may be a method widely known in the art, for example, fluorescent staining using diphenylhex riene (DPH).
(§1) To identify the properties of VEGs synthesized according to the synthetic methods of Preparation Examples 1 to […] molecular weights (M.W.) and critical micellar concentrations (CMCs) of VEGs, and the hydrodynamic radii (Rh) of formed micelles were measured.
(§2) Specifically, the CMCs were measured using hydrophobic fluorescence staining and diphenylhexatriene (DPH), and the hydrodynamic radii (Rh) of the micelles formed by each formulation were measured by dynamic light scattering (DLS).

UapA [2] = biological target: T2, UapA (Emericella nidulans, UniProt Q07307, G411V); assay: UapA extraction and thermal stability by fluorescence size exclusion chromatography (FSEC); parameters: made in house
Protocol: The membrane containing UapA was resuspended in a pH 8.0 PBS buffer containing 10 mM imidazole, 150 mM NaCl and 10% glycerol, and a protein concentration was measured. The membrane was adjusted to a concentration of 1 mg/ml, and a 1 ml aliquot was incubated for 60 minutes with each of 1.0 mL of DDM, LMNG, VEG-3 and VEG-5, on ice under stirring. A 100 uL aliquot was obtained from each tube and subjected to ultracentrifugation for 10 minutes at 150,000 g, and then fluorescent SEC (FSEC) was performed on each sample. The remaining soluble fractions were incubated for 10 minutes at 45° C. The thermally-treated samples were applied to FSEC to monitor the integrity of a transporter. FSEC was performed using a Superose6 column (GE Healthcare) equilibrated with a buffer containing an appropriate preparation (DDM, LMNG, VEG-3 or VEG-5).

[3] = Hydrodynamic radius of micelles by dynamic light scattering (DLS); type: physicochemical; conditions: at 1.0 wt %
Protocol: A method of measuring the radius of a micelle is not particularly limited, but may be a method well known in the art, for example, dynamic light scattering (DLS).
as §1, §2

UapA [4] = biological target: T2, UapA; assay: UapA thermal stability, CPM assay; parameters: made in house; host or cells: Saccharomyces cerevisiae FGY217 membranes; conditions: CMC+0.2 wt %, 40° C. for 120 minutes
Protocol: UapAG411VΔ1-11 (hereinafter, referred to as “UapA”) was expressed in a Saccharomyces cerevisiae FGY217 strain by GFP fusion, and isolated into a sample buffer (20 mM Tris (pH 7.5), 150 mM NaCl, 0.03% DDM, 1 mM xanthine), which was performed according to the method disclosed in the paper written by J. Leung et al. (Mol. Menthr. Biol. 2013, 30, 32-42). The protein was concentrated to be approximately 10 mg/ml using a 100 kDa molecular weight cutoff filter (Millipore). The protein was diluted 1:150 with a buffer containing DDM, VEG (VEG-1, VEG-2, VEG-3, VEG-4 or VEG-5) or LMNG at CMC+0.2 wt % in Greiner 96. CPM dye (Invitrogen) stored in DMSO (Sigma) was diluted with a dye buffer (20 mM Tris (pH 7.5), 150 mM NaCl, 0.03% DDM, 5 mM EDTA), and 3 μL of the diluted dye was added to an individual protein sample. The reaction mixture was treated at a constant temperature of 40° C. for 120 minutes. A fluorescence emission intensity was monitored using a microplate spectrofluorometer set to excitation and emission wavelengths of 387 and 463 nm, respectively. The maximum fluorescence value was used to calculate the percentage of a protein folded during incubation. The relative amount of the folded protein was plotted over time using GraphPad Prism.

## Cc1c(C)c2c(c(C)c1OCC(=O)NC(CO[C@@H]1OC(CO)[C@@H](O[C@H]3OC(CO)[C@@H](O)[C@H](O)C3O)[C@H](O)C1O)CO[C@@H]1OC(CO)[C@@H](O[C@H]3OC(CO)[C@@H](O)[C@H](O)C3O)[C@H](O)C1O)CCC(C)(CCCC(C)CCCC(C)CCCC(C)C)O2 (stereo partly shown) [VEG-3]
LHI-RC complex
  Ability to maintain the integrity of the LHI-RC complex (A875): most excellent effect
[1]
  CMC: ~0.002 mM
  CMC (wt %): ~0.0002 wt %
UapA [2]; 45° C. for 10 minutes
  UapA integrity after thermal treatment (FSEC): maintained protein integrity
UapA [2]; before thermal treatment, 60 minutes on ice
  Ability to extract and solubilize UapA (FSEC): LMNG and DDM were superior to VEG-3 and VEG-5
[3]
  Rh (nm), hydrodynamic radius of micelles: 4.8 ± 0.1 nm
UapA [4]
  Ability to maintain UapA in a structurally stable state (CPM assay): excellent ability to maintain UapA in a structurally stable state
